Measured values reported in patent US12240816B2, “Deuterated compounds and uses thereof” (Aldeyra Therapeutics, Inc., priority 2015, dated 2025).
Read-outs that look alike come from different tables or passages of the source.

Experiments:
Experiment in all cases: biochemical
Assay type in all cases: biochemical
[1] = biological target: enzyme and uptake assay panel targets (Table 36) (Homo sapiens, UniProt Q16539); settings: p38α kinase (h); 1.0E−05M
[2] = biological target: enzyme and uptake assay panel targets (Table 36) (Homo sapiens, UniProt P12821); settings: ACE (h); 1.0E−05M; flag INTER: Test compound interferes with the assay detection method
[3] = biological target: enzyme and uptake assay panel targets (Table 36) (Homo sapiens, UniProt Q13370); settings: PDE3B (h); 1.0E−05M
[4] = biological target: enzyme and uptake assay panel targets (Table 36) (Mus musculus, UniProt P29477); settings: inducible NOS; 1.0E−05M
[5] = biological target: enzyme and uptake assay panel targets (Table 36) (Homo sapiens, UniProt P18054); settings: 12-lipoxygenase (h); 1.0E−05M
[6] = biological target: enzyme and uptake assay panel targets (Table 36) (Homo sapiens, UniProt P00519); settings: Abl kinase (h); 1.0E−05M
[7] = biological target: enzyme and uptake assay panel targets (Table 36) (Homo sapiens, UniProt P06213); settings: IRK (h)(InsR); 1.0E−05M
[8] = biological target: enzyme and uptake assay panel targets (Table 36) (Homo sapiens, UniProt P09917); settings: 5-lipoxygenase (h); 1.0E−05M
[9] = biological target: enzyme and uptake assay panel targets (Table 36) (Homo sapiens, UniProt Q14790); settings: caspase-8 (h); 1.0E−05M
[10] = biological target: enzyme and uptake assay panel targets (Table 36) (Homo sapiens, UniProt Q9BYF1); settings: ACE-2 (h); 1.0E−05M; flag INTER: Test compound interferes with the assay detection method
[11] = biological target: enzyme and uptake assay panel targets (Table 36) (Homo sapiens, UniProt P06241); settings: Fyn kinase (h); 1.0E−05M
[12] = biological target: enzyme and uptake assay panel targets (Table 36) (Homo sapiens, UniProt O00408); settings: PDE2A1 (h); 1.0E−05M
[13] = biological target: enzyme and uptake assay panel targets (Table 36) (Homo sapiens, UniProt P27338); settings: MAO-B (h) recombinant enzyme; 1.0E−05M
[14] = biological target: enzyme and uptake assay panel targets (Table 36) (Homo sapiens, UniProt P24941); settings: CDK2 (h) (cycA); 1.0E−05M
[15] = tested on: enzyme and uptake assay panel targets (Table 36); settings: COMT (catechol-O-methyl transferase); 1.0E−05M; flag INTER: Test compound interferes with the assay detection method
[16] = biological target: T1, enzyme and uptake assay panel targets (Table 36) (Bos taurus, UniProt P80457); settings: xanthine oxldase/superoxide 02 ^−scavenging, 1.0E−05M
T1 construct: other: xanthine oxidase/superoxide 02^−scavenging; nH; other: xanthine oxldase/superoxide 02 ^−scavenging; 1.0E−05M; ot; purified xanthine oxidase from bovine milk

[17] = biological target: enzyme and uptake assay panel targets (Table 36) (Homo sapiens, UniProt Q08499); settings: PDE4D2 (h); 1.0E−05M
[18] = biological target: enzyme and uptake assay panel targets (Table 36) (Homo sapiens, UniProt P17948); settings: FLT-1 kinase (h) (VEGFR1); 1.0E−05M
[19] = biological target: enzyme and uptake assay panel targets (Table 36) (Homo sapiens, UniProt P42574); settings: caspase-3 (h); 1.0E−05M
[20] = biological target: enzyme and uptake assay panel targets (Table 36) (Homo sapiens, UniProt Q9UQM7); settings: CaMK2α (h); 1.0E−05M
[21] = biological target: enzyme and uptake assay panel targets (Table 36) (Homo sapiens, UniProt P07948); settings: Lyn A kinase (h); 1.0E−05M
[22] = biological target: enzyme and uptake assay panel targets (Table 36) (Homo sapiens, UniProt P43403); settings: ZAP70 kinase (h); 1.0E−05M
Chain of enzyme and uptake assay panel targets (Table 36) (Homo sapiens, UniProt P43403) (P43403 whole entry): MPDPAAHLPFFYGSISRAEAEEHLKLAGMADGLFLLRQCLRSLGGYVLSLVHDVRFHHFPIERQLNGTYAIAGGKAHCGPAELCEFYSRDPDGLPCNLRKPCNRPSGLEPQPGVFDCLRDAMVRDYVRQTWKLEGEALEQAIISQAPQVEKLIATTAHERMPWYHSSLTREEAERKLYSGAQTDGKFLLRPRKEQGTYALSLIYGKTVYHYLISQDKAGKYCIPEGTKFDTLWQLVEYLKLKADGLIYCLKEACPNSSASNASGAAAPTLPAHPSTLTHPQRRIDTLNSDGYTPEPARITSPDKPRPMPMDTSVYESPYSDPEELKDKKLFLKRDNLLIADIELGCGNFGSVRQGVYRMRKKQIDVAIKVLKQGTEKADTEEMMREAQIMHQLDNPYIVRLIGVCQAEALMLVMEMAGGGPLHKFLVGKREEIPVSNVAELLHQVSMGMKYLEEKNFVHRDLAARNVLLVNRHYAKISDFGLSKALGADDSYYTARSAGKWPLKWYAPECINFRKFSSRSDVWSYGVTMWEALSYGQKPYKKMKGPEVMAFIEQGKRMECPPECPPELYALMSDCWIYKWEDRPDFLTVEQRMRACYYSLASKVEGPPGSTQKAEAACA

Chain of enzyme and uptake assay panel targets (Table 36) (Homo sapiens, UniProt Q13370) (Q13370 whole entry): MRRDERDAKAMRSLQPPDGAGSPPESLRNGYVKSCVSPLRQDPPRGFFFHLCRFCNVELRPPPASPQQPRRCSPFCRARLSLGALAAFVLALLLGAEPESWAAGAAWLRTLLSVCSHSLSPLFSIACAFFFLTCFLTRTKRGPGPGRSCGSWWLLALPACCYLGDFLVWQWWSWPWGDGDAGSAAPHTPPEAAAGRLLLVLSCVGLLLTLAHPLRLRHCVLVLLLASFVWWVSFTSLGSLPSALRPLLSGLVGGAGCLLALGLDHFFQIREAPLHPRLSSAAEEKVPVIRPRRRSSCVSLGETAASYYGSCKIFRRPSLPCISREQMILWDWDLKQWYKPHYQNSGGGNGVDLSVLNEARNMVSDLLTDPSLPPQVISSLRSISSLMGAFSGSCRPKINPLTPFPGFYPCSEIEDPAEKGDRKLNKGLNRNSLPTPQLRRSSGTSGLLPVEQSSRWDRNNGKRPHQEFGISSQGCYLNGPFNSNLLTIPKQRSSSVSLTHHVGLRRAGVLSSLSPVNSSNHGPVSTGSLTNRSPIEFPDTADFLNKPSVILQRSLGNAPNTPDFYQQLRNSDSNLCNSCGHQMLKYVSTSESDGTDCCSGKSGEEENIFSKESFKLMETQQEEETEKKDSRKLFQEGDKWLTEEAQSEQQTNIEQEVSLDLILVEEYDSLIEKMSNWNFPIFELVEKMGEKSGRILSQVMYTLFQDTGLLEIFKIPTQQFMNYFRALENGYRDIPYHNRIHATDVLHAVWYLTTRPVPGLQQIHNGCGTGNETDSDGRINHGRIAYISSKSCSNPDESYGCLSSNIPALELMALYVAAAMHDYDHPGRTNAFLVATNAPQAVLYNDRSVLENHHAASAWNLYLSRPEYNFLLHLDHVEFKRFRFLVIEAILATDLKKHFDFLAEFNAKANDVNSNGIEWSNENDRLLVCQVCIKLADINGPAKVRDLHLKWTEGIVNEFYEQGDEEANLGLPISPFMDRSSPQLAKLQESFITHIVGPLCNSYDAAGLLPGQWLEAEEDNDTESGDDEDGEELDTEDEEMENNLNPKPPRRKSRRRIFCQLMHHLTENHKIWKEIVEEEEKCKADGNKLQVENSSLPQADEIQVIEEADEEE
Chain of enzyme and uptake assay panel targets (Table 36) (Homo sapiens, UniProt P27338) (P27338 whole entry): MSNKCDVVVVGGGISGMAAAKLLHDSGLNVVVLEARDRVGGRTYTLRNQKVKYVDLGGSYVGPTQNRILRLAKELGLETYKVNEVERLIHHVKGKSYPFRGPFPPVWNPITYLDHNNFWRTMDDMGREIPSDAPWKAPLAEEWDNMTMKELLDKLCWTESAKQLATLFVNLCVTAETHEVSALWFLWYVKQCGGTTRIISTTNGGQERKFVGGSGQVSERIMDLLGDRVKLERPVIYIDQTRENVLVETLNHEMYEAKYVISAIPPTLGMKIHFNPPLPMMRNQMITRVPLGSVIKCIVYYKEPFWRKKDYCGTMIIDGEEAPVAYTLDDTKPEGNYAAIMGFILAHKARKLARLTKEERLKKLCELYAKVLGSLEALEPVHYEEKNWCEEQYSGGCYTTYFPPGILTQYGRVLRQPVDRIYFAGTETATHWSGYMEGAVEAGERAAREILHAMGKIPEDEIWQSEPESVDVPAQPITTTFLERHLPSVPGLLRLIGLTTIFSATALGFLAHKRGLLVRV
Chain of enzyme and uptake assay panel targets (Table 36) (Mus musculus, UniProt P29477) (P29477 whole entry): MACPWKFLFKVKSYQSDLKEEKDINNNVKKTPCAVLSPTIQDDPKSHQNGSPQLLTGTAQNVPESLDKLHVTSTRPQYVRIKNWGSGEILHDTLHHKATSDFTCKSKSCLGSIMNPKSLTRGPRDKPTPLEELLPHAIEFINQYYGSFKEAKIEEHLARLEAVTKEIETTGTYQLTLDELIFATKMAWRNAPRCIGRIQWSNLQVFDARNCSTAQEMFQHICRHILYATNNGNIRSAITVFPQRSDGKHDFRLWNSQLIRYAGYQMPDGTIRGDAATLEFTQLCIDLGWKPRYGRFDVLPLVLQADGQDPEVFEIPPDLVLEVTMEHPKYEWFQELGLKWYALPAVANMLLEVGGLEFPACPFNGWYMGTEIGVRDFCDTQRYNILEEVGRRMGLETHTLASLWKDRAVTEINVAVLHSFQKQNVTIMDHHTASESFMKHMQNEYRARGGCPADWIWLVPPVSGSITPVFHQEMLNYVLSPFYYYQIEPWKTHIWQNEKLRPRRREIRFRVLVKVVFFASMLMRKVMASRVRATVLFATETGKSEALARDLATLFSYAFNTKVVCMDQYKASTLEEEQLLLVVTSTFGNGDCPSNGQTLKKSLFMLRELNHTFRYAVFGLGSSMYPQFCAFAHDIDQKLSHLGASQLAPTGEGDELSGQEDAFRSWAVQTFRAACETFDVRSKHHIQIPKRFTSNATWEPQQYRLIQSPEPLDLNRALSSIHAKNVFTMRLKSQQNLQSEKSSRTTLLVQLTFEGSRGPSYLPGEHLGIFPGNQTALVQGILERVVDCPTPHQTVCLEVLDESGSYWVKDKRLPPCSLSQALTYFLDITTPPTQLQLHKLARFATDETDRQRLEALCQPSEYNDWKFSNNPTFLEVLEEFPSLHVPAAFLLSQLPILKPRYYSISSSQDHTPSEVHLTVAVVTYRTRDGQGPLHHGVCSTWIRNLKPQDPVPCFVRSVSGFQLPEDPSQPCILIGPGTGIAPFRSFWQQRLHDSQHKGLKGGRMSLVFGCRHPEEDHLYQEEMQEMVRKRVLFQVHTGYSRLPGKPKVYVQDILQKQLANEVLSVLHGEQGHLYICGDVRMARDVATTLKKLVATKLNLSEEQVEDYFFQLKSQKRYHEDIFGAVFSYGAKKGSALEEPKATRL
Chain of enzyme and uptake assay panel targets (Table 36) (Homo sapiens, UniProt Q08499) (Q08499 whole entry): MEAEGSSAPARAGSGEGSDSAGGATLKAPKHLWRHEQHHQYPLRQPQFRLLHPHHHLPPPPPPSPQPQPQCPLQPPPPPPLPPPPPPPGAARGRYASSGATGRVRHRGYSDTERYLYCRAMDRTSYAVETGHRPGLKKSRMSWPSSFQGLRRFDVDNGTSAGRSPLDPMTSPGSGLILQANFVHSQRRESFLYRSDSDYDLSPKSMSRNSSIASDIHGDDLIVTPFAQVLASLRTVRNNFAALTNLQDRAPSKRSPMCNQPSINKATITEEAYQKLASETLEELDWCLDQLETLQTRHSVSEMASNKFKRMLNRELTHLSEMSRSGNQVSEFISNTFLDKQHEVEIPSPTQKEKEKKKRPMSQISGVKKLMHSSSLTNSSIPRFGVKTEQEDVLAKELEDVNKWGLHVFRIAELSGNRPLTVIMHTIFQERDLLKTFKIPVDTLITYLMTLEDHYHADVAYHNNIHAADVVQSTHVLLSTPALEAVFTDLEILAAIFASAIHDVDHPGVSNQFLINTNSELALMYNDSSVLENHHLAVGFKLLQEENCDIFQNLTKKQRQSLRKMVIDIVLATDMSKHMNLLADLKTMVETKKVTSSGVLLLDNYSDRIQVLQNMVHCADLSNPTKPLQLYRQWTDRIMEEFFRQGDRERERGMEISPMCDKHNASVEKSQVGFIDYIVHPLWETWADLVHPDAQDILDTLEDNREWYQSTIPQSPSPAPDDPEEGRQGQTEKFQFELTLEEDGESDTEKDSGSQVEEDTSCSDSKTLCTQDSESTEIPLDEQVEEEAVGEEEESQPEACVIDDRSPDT
Chain of enzyme and uptake assay panel targets (Table 36) (Homo sapiens, UniProt Q16539) (Q16539 whole entry): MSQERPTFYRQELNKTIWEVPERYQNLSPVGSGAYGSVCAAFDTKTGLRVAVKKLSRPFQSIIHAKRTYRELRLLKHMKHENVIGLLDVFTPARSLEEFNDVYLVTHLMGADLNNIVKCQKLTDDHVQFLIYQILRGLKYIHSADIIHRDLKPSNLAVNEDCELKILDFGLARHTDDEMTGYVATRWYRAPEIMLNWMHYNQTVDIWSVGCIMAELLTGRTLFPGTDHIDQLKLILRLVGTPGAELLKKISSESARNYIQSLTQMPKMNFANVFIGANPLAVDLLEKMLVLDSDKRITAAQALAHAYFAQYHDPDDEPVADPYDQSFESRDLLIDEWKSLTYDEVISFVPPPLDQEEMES
Chain of enzyme and uptake assay panel targets (Table 36) (Homo sapiens, UniProt P42574) (P42574 29-277): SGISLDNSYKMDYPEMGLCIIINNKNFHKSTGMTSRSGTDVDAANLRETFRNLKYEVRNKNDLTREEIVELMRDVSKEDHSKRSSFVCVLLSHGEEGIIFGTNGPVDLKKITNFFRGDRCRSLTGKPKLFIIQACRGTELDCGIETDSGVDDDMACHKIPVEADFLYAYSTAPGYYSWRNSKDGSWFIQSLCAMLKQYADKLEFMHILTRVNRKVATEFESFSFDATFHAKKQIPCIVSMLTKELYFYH

Structure (SMILES): [2H]C([2H])([2H])C(O)(c1nc2ccc(Cl)cc2cc1N)C([2H])([2H])[2H] [Compound I-1]
- % inhibition of Control Values 1st [1]: −3.2%
- % inhibition of Control Values 2nd [1]: −3.1%
- % inhibition of Control Values Mean [1]: −3.2%
- % inhibition of Control Values 1st [2]: 127.6%
- % inhibition of Control Values 2nd [2]: 131.0%
- % inhibition of Control Values Mean [2]: 129.3%
- % inhibition of Control Values 1st [3]: 0.9%
- % inhibition of Control Values 2nd [3]: −4.5%
- % inhibition of Control Values Mean [3]: −1.8%
- % inhibition of Control Values 1st [4]: 2.8%
- % inhibition of Control Values 2nd [4]: −2.0%
- % inhibition of Control Values Mean [4]: 0.4%
- % inhibition of Control Values 1st [5]: −9.4%
- % inhibition of Control Values 2nd [5]: −4.1%
- % inhibition of Control Values Mean [5]: −6.7%
- % inhibition of Control Values 1st [6]: −4.8%
- % inhibition of Control Values 2nd [6]: −11.6%
- % inhibition of Control Values Mean [6]: −8.2%
- % inhibition of Control Values 1st [7]: −15.1%
- % inhibition of Control Values 2nd [7]: −7.9%
- % inhibition of Control Values Mean [7]: −11.5%
- % inhibition of Control Values 1st [8]: 23.5%
- % inhibition of Control Values 2nd [8]: 24.8%
- % inhibition of Control Values Mean [8]: 24.2%
- % inhibition of Control Values 1st [9]: 14.7%
- % inhibition of Control Values 2nd [9]: 16.4%
- % inhibition of Control Values Mean [9]: 15.6%
- % inhibition of Control Values 1st [10]: 23.8%
- % inhibition of Control Values 2nd [10]: 26.2%
- % inhibition of Control Values Mean [10]: 25.0%
- % inhibition of Control Values 1st [11]: −8.6%
- % inhibition of Control Values 2nd [11]: −0.3%
- % inhibition of Control Values Mean [11]: −4.5%
- % inhibition of Control Values 1st [12]: 17.1%
- % inhibition of Control Values 2nd [12]: −24.5%
- % inhibition of Control Values Mean [12]: −3.7%
- % inhibition of Control Values 1st [13]: −3.1%
- % inhibition of Control Values 2nd [13]: −3.7%
- % inhibition of Control Values Mean [13]: −3.4%
- % inhibition of Control Values 1st [14]: 1.2%
- % inhibition of Control Values 2nd [14]: −5.1%
- % inhibition of Control Values Mean [14]: −1.9%
- % inhibition of Control Values 1st [15]: 5.8%
- % inhibition of Control Values 2nd [15]: 14.7%
- % inhibition of Control Values Mean [15]: 10.3%
- inhibition at 10 µM ([16]; read-out: % inhibition of Control Values 1st): -3.1%
- inhibition at 10 µM ([16]; read-out: % inhibition of Control Values 2nd): 15.6%
- inhibition at 10 µM ([16]; read-out: % inhibition of Control Values Mean): 6.3%
- % inhibition of Control Values 1st [17]: 15.9%
- % inhibition of Control Values 2nd [17]: 16.9%
- % inhibition of Control Values Mean [17]: 16.4%
- % inhibition of Control Values 1st [18]: −15.5%
- % inhibition of Control Values 2nd [18]: −18.8%
- % inhibition of Control Values Mean [18]: −17.2%
- % inhibition of Control Values 1st [19]: −2.0%
- % inhibition of Control Values 2nd [19]: 2.5%
- % inhibition of Control Values Mean [19]: 0.2%
- % inhibition of Control Values 1st [20]: 0.2%
- % inhibition of Control Values 2nd [20]: −6.5%
- % inhibition of Control Values Mean [20]: −3.1%
- % inhibition of Control Values 1st [21]: −17.7%
- % inhibition of Control Values 2nd [21]: −35.7%
- % inhibition of Control Values Mean [21]: −26.7%
- % inhibition of Control Values 1st [22]: 0.4%
- % inhibition of Control Values 2nd [22]: 1.5%
- % inhibition of Control Values Mean [22]: 1.0%
